Experimental data: patent US8604040B2 (priority 2010, dated 2013)
Marks after values point to notes of the source that are not given here.

Assay: log P by HPLC (EEC Directive 79/831 Annex V.A8)
Type: physicochemical
[1] = [b] LC-MS, acidic range, pH 2.7, 0.1% aqueous formic acid and acetonitrile
[2] = [c] LC-MS, neutral range, pH 7.8, 0.001 molar aqueous ammonium hydrogencarbonate and acetonitrile

| Compound | log P [1] | log P [2] |
| --- | --- | --- |
| Cc1cc(C(F)(F)F)nn1CC(=O)N1CCC(c2cccc(C(=O)OC(C)c3ccccc3Cl)n2)CC1 (centres unmarked) [Example 32] | 4.12^[b] | – |
| Cc1cc(C(F)(F)F)nn1CC(=O)N1CCC(c2cccc(C(=O)OC3C=CCCC3)n2)CC1 (centres unmarked) [Example 33] | 3.64^[b] | – |
| Cc1cc(C(F)(F)F)nn1CC(=O)N1CCC(c2cccc(C(=O)OC3CCCCC3)n2)CC1 [Example 34] | 3.9^[b] | – |
| Cc1cc(C(F)(F)F)nn1CC(=O)N1CCC(c2cccc(C(=O)OC3CCCc4ccccc43)n2)CC1 (centres unmarked) [Example 35] | 4.15^[b] | – |
| Cc1cc(C(F)(F)F)nn1CC(=O)N1CCC(c2cccc(C(=O)OCC#Cc3ccccc3Cl)n2)CC1 [Example 36] | 4.03^[b] | – |
| Cc1cc(C(F)(F)F)nn1CC(=O)N1CCC(c2cccc(C(=O)OCC(C)(C)C)n2)CC1 [Example 37] | 3.86^[b] | – |
| Cc1cc(C(F)(F)F)nn1CC(=O)N1CCC(c2cccc(C(=O)OCC3CCCCC3)n2)CC1 [Example 38] | 4.38^[b] | – |
| C=CCCCCOC(=O)c1cccc(C2CCN(C(=O)Cn3nc(C(F)(F)F)cc3C)CC2)n1 [Example 39] | 3.86^[b] | – |
| CCCCCCCOC(=O)c1cccc(C2CCN(C(=O)Cn3nc(C(F)(F)F)cc3C)CC2)n1 [Example 40] | 4.73^[b] | – |
| COCCOC(=O)c1cccc(C2CCN(C(=O)Cn3nc(C(F)(F)F)cc3C)CC2)n1 [Example 41] | 2.46^[b] | – |
| Cc1cc(C(F)(F)F)nn1CC(=O)N1CCC(c2cccc(C(=O)OCc3ccc(F)cc3F)n2)CC1 [Example 42] | 3.6^[b] | – |
| Cc1cc(C(F)(F)F)nn1CC(=O)N1CCC(c2cccc(C(=O)OCc3c(F)cc(F)cc3F)n2)CC1 [Example 43] | 3.69^[b] | – |
| Cc1ccccc1COC(=O)c1cccc(C2CCN(C(=O)Cn3nc(C(F)(F)F)cc3C)CC2)n1 [Example 44] | 3.8^[b] | – |
| Cc1cc(C(F)(F)F)nn1CC(=O)N1CCC(c2cccc(C(=O)OCc3ccccc3C(F)(F)F)n2)CC1 [Example 45] | 3.97^[b] | – |
| Cc1cc(C(F)(F)F)nn1CC(=O)N1CCC(c2cccc(C(=O)OCc3ccccc3Cl)n2)CC1 [Example 46] | 3.84^[b] | – |
| Cc1cc(C(F)(F)F)nn1CC(=O)N1CCC(c2cccc(C(=O)OCc3ccccc3F)n2)CC1 [Example 47] | 3.52^[b] | – |
| Cc1cc(C(F)(F)F)nn1CC(=O)N1CCC(c2cccc(C(=O)OCc3c(F)cccc3F)n2)CC1 [Example 48] | 3.51^[b] | – |
| Cc1cccnc1COC(=O)c1cccc(C2CCN(C(=O)Cn3nc(C(F)(F)F)cc3C)CC2)n1 [Example 49] | 2.23^[b] | – |
| Cc1ccnc(COC(=O)c2cccc(C3CCN(C(=O)Cn4nc(C(F)(F)F)cc4C)CC3)n2)c1 [Example 50] | 3.67^[b] | – |
| Cc1cc(C(F)(F)F)nn1CC(=O)N1CCC(c2cccc(C(=O)Oc3cccc4ccccc34)n2)CC1 [Example 51] | 3.97^[b] | – |
| Cc1cc(C(F)(F)F)nn1CC(=O)N1CCC(c2cccc(C(=O)Oc3ccc4ccccc4c3)n2)CC1 [Example 52] | 3.9^[b] | – |

| Compound | log P [1] | log P [2] |
| --- | --- | --- |
| Cc1cc(C(F)(F)F)nn1CC(=O)N1CCC(c2cccc(C(=O)SC3CCCCC3)n2)CC1 [Example 53] | – | 4.83^[c] |
| Cc1cc(C(F)(F)F)nn1CC(=O)N1CCC(c2cccc(C(=O)SCc3ccc(Cl)cc3Cl)n2)CC1 [Example 55] | 5.17 | 5.21 |
| Cc1ccccc1CSC(=O)c1cccc(C2CCN(C(=O)Cn3nc(C(F)(F)F)cc3C)CC2)n1 [Example 56] | 4.57 | 4.58 |
| Cc1cc(C(F)(F)F)nn1CC(=O)N1CCC(c2cccc(C(=O)SCc3ccccc3Cl)n2)CC1 [Example 57] | 4.61^[b]; 4.61^[c] | 4.61^[b]; 4.61^[c] |
| Cc1cc(C(F)(F)F)nn1CC(=O)N1CCC(c2cccc(C(=O)SCc3c(F)cccc3F)n2)CC1 [Example 58] | 4.27 | 4.29 |
| Cc1cc(C(F)(F)F)nn1CC(=O)N1CCC(c2cccc(C(=O)SCc3ccc(F)cc3)n2)CC1 [Example 59] | 4.29 | 4.31 |
| Cc1cc(C(F)(F)F)nn1CC(=O)N1CCC(c2cccc(C(=O)Sc3cccc4ccccc34)n2)CC1 [Example 60] | 4.41 | 4.46 |
| Cc1cc(C(F)(F)F)nn1CC(=O)N1CCC(c2cccc(C(=O)Sc3ccc4ccccc4c3)n2)CC1 [Example 61] | 4.57 | 4.61 |
| Cc1cc(C(F)(F)F)nn1CC(=O)N1CCC(c2cccc(C(=O)Sc3ccccc3)n2)CC1 [Example 62] | 3.95^[b]; 3.95^[c] | 3.95^[b]; 3.95^[c] |
| Cc1cc(C(F)(F)F)nn1CC(=O)N1CCC(c2cccc(C(=O)Sc3cccs3)n2)CC1 [Example 63] | 3.85 | 3.88 |
| Cc1cc(C(F)(F)F)nn1CC(=O)N1CCN(c2cccc(C(=O)N(C)C3CCCCC3)n2)CC1 [Example 64] | 3.19 | 3.21 |
| Cc1cc(C(F)(F)F)nn1CC(=O)N1CCN(c2cccc(C(=O)NCc3ccccc3Cl)n2)CC1 [Example 65] | 3.34 | 3.36 |
| Cc1cc(C(F)(F)F)nn1CC(=O)N1CCN(c2cccc(C(=O)NCc3c(F)cccc3F)n2)CC1 [Example 66] | 3.11 | 3.12 |
| Cc1cc(C(F)(F)F)nn1CC(=O)N1CCN(c2cccc(C(=O)NCc3cccs3)n2)CC1 [Example 67] | 2.92 | 2.93 |
| Cc1cc(C(F)(F)F)nn1CC(=O)N1CCN(c2cccc(C(=O)OCc3ccccc3Cl)n2)CC1 [Example 72] | 3.89 | 3.9 |
| Cc1cc(C(F)(F)F)nn1CC(=O)N1CCN(c2cccc(C(=O)OCc3c(F)cccc3F)n2)CC1 [Example 74] | 3.54 | 3.55 |
| Cc1cc(C(F)(F)F)nn1CC(=O)N1CCN(c2cccc(C(=O)Oc3ccc4ccccc4c3)n2)CC1 [Example 76] | 4.01 | 4.02 |
| CN(C(=O)c1cccc(C2CCN(C(=O)Cn3nc(C(F)F)cc3C(F)F)CC2)n1)c1ccccc1Cl [Example 77] | 3.01^[b]; 3.01^[c] | 3.01^[b]; 3.01^[c] |
| CN(C(=O)c1cccc(C2CCN(C(=O)Cn3nc(C(F)F)cc3C(F)F)CC2)n1)C1CCCCC1 [Example 78] | 3.02 | 3.08 |
| CN(Cc1ccc(Cl)cc1Cl)C(=O)c1cccc(C2CCN(C(=O)Cn3nc(C(F)F)cc3C(F)F)CC2)n1 [Example 79] | 3.66 | 3.73 |
| CN(Cc1ccccn1)C(=O)c1cccc(C2CCN(C(=O)Cn3nc(C(F)F)cc3C(F)F)CC2)n1 [Example 80] | 1.81 | 2.18 |
